Columns and labels:
Firefly luciferase [1] = test: Luciferase assay: emission spectrum of purified luciferase with luciferin substrates; settings: substrate of purified firefly luciferase, pH 7.8, Spex Fluoromax-3
Firefly luciferase [2] = settings: amino-luciferin as substrate, literature value; cited from earlier work

## CC(C)Nc1ccc2nc(C3=N[C@@H](C(=O)O)CS3)sc2c1 [isopropylamino, D-2-(6′-isopropylamino-2′-benzothiazolyl)-Δ^2-thiazoline-4-carboxylic acid]
Firefly luciferase [1]
  maximal emission: 607 nm

## CCNc1ccc2nc(C3=N[C@@H](C(=O)O)CS3)sc2c1 [ethylamino, D-2-(6′-ethylamino-2′-benzothiazolyl)-Δ^2-thiazoline-4-carboxylic acid]
Firefly luciferase [1]
  maximal emission: 607 nm

## CCCCNc1ccc2nc(C3=N[C@@H](C(=O)O)CS3)sc2c1 [n-butylamino, D-2-(6′-butylamino-2′-benzothiazolyl)-Δ^2-thiazoline-4-carboxylic acid]
Firefly luciferase [1]
  maximal emission: 607 nm

## amino-luciferin [reference compound]
Firefly luciferase [1]
  maximal emission: 593 nm
Firefly luciferase [2]
  maximal emission reported by White et al., JACS (1966) 88: 2015: 605 nm

## CN(C)c1ccc2nc(C3=N[C@@H](C(=O)O)CS3)sc2c1 [dimethylamino-luciferin (1a), D-2-(6′-dimethylamino-2′-benzothiazolyl)-Δ^2-thiazoline-4-carboxylic acid]
Firefly luciferase [1]
  maximal emission: 624 nm

## O=C(O)[C@H]1CSC(c2nc3ccc(O)cc3s2)=N1 [D-luciferin, reference compound]
Firefly luciferase [1]
  maximal emission: 555 nm
